Article PMC2364878, “Insecticidal Effects of Organotin(IV) Compounds on Plutella Xylostella (L.) Larvae. II. Inhibitory Potencies Against Acetylcholinesterase and Evidence for Synergism in Tests With Bacillus Thuringiensis(BER.) and Malathion” (Metal-Based Drugs, 1994)
Read-outs that look alike come from different tables or passages of the source.

Tests used:
[1] = test system: T1, acetylcholinesterase (AChE), S-strain DBM larvae; assay: Ellman colorimetric assay, […] nm, linear regression; type: biochemical, Plutella xylostella; conditions: acetylthiocholine iodide 0.5 mM, DTNB 0.3 mM, 0.1 M phosphate pH 7.0, 6 min, read-out: I50
T1 construct: gene ace1; native, 1,500 g supernatant of whole 4th instar larva homogenate, not purified

[2] = test system: T2, acetylcholinesterase (AChE), R-strain DBM larvae; assay: Ellman colorimetric assay, […] nm, linear regression; type: biochemical, Plutella xylostella; conditions: acetylthiocholine iodide 0.5 mM, DTNB 0.3 mM, 0.1 M phosphate pH 7.0, 6 min; above tested range (10^-3 to 10^-8 M); technical grade 90% a.i.; read-out: I50
T2 construct: gene ace1; native, 1,500 g supernatant of whole 4th instar larva homogenate, not purified

SMILES | IC50 ([1]; above tested range (10^-3 to 10^-8 M), technical grade 84% a.i.) [µM] | IC50 [2] [µM] | IC50 ([1]; technical grade 90% a.i.) [µM]
CCOC(=O)CC(SP(=S)(OC)OC)C(=O)OCC (stereo not drawn) [Malathion] | 33200 |  | 
CNC(=O)ON=C(C)SC [Methomyl] |  | 2360 | 351
